Three molecules from ChEMBL document CHEMBL4265957, “The development of piperidinones as potent MDM2-P53 protein-protein interaction inhibitors for cancer therapy” (Eur J Med Chem, 2018) can be followed below.

Structures are written as SMILES. pIC50: −log10 of the molar value.

For assay [1], the system named is SJSA-1. Kind of assay: cells. The following applies: Homo sapiens.
Assay [2] has as its target E3 ubiquitin-protein ligase Mdm2 (Homo sapiens, UniProt Q00987). Kind of assay: Inhibition of MDM2 (unknown origin).

Sequence of E3 ubiquitin-protein ligase Mdm2 (Q00987 whole entry): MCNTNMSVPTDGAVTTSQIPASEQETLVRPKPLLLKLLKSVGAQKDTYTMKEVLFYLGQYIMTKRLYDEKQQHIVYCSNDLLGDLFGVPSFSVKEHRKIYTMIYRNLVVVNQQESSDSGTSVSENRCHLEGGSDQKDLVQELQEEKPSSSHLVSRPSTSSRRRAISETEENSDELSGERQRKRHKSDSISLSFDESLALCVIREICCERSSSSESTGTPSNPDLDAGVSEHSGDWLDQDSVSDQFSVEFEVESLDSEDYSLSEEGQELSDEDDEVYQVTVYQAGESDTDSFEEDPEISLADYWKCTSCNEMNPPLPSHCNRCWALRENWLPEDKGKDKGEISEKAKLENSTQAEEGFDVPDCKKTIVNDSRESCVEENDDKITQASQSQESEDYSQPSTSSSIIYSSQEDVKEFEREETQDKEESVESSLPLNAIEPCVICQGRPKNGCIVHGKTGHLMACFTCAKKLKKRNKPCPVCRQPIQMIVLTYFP

As a reminder, the pIC50 is −log10 of the IC50, conventionally taken in molar units. Molecule `CN(C[C@H](C1CC1)N1C(=O)[C@@](C)(CC(=O)O)C[C@H](c2cccc(Cl)c2)[C@H]1c1ccc(Cl)cc1)S(=O)(=O)C1CC1` showed a pIC50 in assay [1] of 8.30.
Molecule `CC1(C)CCC2(CC1)N[C@@H](C(=O)N[C@@H]1CC[C@@H](C(N)=O)OC1)[C@H](c1ccnc(Cl)c1F)[C@]21C(=O)Nc2cc(Cl)ccc21` showed a pIC50 in assay [2] of 8.25.
Take `Nc1ccn([C@@H]2O[C@H](CO)[C@@H](O)[C@@H]2O)c(=O)n1` [CYTARABINE]: the pIC50 in assay [2] was 7.70.
